In US12036228B2, “Treatment of seizure disorders” (Shackelford Pharma Inc., priority 2022, dated 2024):
Values joined by “and” are separate entries in the source; they are usually repeats but may differ in a detail not shown here. Equal entries are not always repeated. Where two headings read alike, the source gives them in different places.

How the values were obtained:
[1] = test system: GTC seizures in human patient; test: Example 2 human patient, Dravet syndrome; type: in vivo
Protocol: A patient first started having seizures and was subsequently diagnosed with Dravet syndrome. Initially, they were having clusters of 2 GTC seizures a day for 2 days occurring about every 2 weeks. Keppra was ineffective as were other combinations of anti-epileptic drugs. Several different combinations were tried and by the time they were first seen for evaluation for cannabinoid treatment on Aug. 7, 2014, they were taking Depakote 125 mg BID, Clonazepam 0.5 mg TID, and Versed/Diastat as needed for rescue but was still having clusters of GTC seizures every 2 weeks. The patient had started a CBD product on Jul. 3, 2014 (product analysis: 11.2 mg CBD/gm with 0.38 mg THC/gm at a dose of 0.7 mL TID (unknown concentration per mL), but seizures still were occurring irregularly—primarily GTC occurring in clusters of 1-2 per day every two weeks, rare atonic, and occasional eye-flutters.

[2] = test system: male CD-1 mice, 6 Hz (22 mA) corneal stimulus psychomotor seizure; test: Mouse 6 Hz seizure (22 mA) test; type: in vivo; conditions: for % Seizure, group / % Seizure / F. Clonus / Lat H. Movement / Straub T. / Stun / Total (seizure score) / Total (seizure score), group mean / ED50: 30 min before test; for % Seizure: individual animals (0/1); for F. Clonus / Lat H. Movement / Straub T. / Stun / Total (seizure score): individual animals; for ED50: Mus musculus, IP
Protocol: This study assessed the anti-epileptic effects of low doses of dronabinol in the mouse 6 Hz seizure (22 mA) test at 4 dose levels. Sixty male CD-1 mice were randomly allocated to 1 of 7 treatment groups outlined in Table 1 below. The mice were purchased from Charles River Laboratories (St. Constant, Quebec, Canada). On the day of the experiment, general health observations and body weight measurements were performed prior to dosing. Thirty (30) minutes after administration of assigned treatments in Table 1, animals underwent a neurological assessment followed immediately by 6 Hz testing. Descriptions of these procedures are provided below.
Dronabinol and sodium valproate were dissolved in their respective vehicles on the day of dosing. Treatments were intraperitoneally administered to the lower right quadrant of the abdomen according to standard operating procedures. Treatment group summaries are included in Table 1.
On the scheduled test day, subjects received a dose of their assigned treatment 30 minutes before the electrical stimulus. Following neurological assessments, animals then received an electrical stimulus (6 Hz, 0.2 millisecond pulse width, 3 second duration, 22 mA) via corneal electrodes moistened with saline (ECT unit 57800; Ugo Basile). In approximately 50% of control animals, these stimulus parameters should elicit a psychomotor seizure within 30 seconds of stimulus delivery, defined as the expression of at least one of the following behaviours: stun/immobility, forelimb clonus, straub tail, or lateral head movement. Protection was defined as complete absence of the following: stun/immobility, forelimb clonus, straub tail and/or lateral head movement, within 30 seconds of stimulus delivery. A seizure score was assigned to each animal based on the number of these behaviours expressed by the animal after stimulus application. Once the animal either entered into a seizure, or 30 seconds elapsed, the endpoint was reached, and the animal was immediately euthanized.
All statistical analyses were performed using GraphPad Prism v.7.03. Analysis of variance (ANOVA) was completed for total seizure score data with the independent grouping variable of treatment (i.e., test article dose and control). In the event of a significant main effect, post-hoc Fisher's least significant difference analysis was conducted to compare vehicle with drug treatment.

male CD-1 mice = test: Neurological assessment (score 0-3) immediately prior to seizure test; type: in vivo, mouse; design: key to Neurological Score: 0: Normal; 1: Modest decrease in spontaneous activity; 2: Marked decrease in spontaneous activity; 3: Loss of righting reflex; conditions: for Neurological Score: 30 min after dosing, individual animals
Protocol: Immediately prior to each seizure test, a brief neurological assessment was performed.

[3] = test system: GTC seizures in human patient; test: Example 7 human patient, intractable GTC seizures; type: in vivo
From the text: A patient was first diagnosed with intractable GTC seizures without status epilepticus in 2001.
The patient first presented for cannabinoid treatment on May 24, 2013. They were then a PhD student in economics. The patient's medical history is significant for having a car accident with a concussion and “scarring”. They developed GTC seizures occurring 3 times per month. […] In 2008, they started using recreational cannabis occasionally, but not regularly.

[4] = test system: seizures in human patient; test: Example 3 human patient, GTC and complex partial seizures; type: in vivo; conditions: including ataxia; discontinued after 6 months
From the text: A patient first started having GTC and complex partial (CP) seizures. […] The patient was referred for evaluation for initiation of cannabinoid/THC treatment in March 2014.

CC[C@@H](C(N)=O)N1CCCC1=O [Keppra, levetiracetam]
effect on seizures ([1]; Dravet patient, initial treatment): ineffective

CCCCCc1cc(O)c2c(c1)OC(C)(C)[C@@H]1CCC(C)=C[C@@H]21 [Dronabinol]
% Seizure, group ([2]; 0.002 mg/kg IP, N = 8): 62.5%
% Seizure ([2]; 0.002 mg/kg IP, N = 8): 1 (5×) and 0 (3×)
F. Clonus ([2]; 0.002 mg/kg IP, N = 8): 1 (4×) and 0 (4×)
Lat H. Movement ([2]; 0.002 mg/kg IP, N = 8): 1 (3×) and 0 (5×)
Straub T. ([2]; 0.002 mg/kg IP, N = 8): 0 (7×) and 1
Stun ([2]; 0.002 mg/kg IP, N = 8): 1 (4×) and 0 (4×)
Total (seizure score) ([2]; 0.002 mg/kg IP, N = 8): 3 (2×) and 2 (3×) and 0 (3×)
Total (seizure score), group mean ([2]; 0.002 mg/kg IP, N = 8): 1.5
% Seizure, group ([2]; 0.02 mg/kg IP, N = 8): 50.0%
% Seizure ([2]; 0.02 mg/kg IP, N = 8): 0 (4×) and 1 (4×)
F. Clonus ([2]; 0.02 mg/kg IP, N = 8): 0 (7×) and 1
Lat H. Movement ([2]; 0.02 mg/kg IP, N = 8): 0 (5×) and 1 (3×)
Straub T. ([2]; 0.02 mg/kg IP, N = 8): 0 (7×) and 1
Stun ([2]; 0.02 mg/kg IP, N = 8): 0 (5×) and 1 (3×)
Total (seizure score) ([2]; 0.02 mg/kg IP, N = 8): 0 (4×) and 2 (2×) and 1 and 3
Total (seizure score), group mean ([2]; 0.02 mg/kg IP, N = 8): 1.0
% Seizure, group ([2]; 0.2 mg/kg IP, N = 8): 50.0%
% Seizure ([2]; 0.2 mg/kg IP, N = 8): 0 (4×) and 1 (4×)
F. Clonus ([2]; 0.2 mg/kg IP, N = 8): 0 (6×) and 1 (2×)
Lat H. Movement ([2]; 0.2 mg/kg IP, N = 8): 0 (7×) and 1
Straub T. ([2]; 0.2 mg/kg IP, N = 8): 0 (5×) and 1 (3×)
Stun ([2]; 0.2 mg/kg IP, N = 8): 0 (4×) and 1 (4×)
Total (seizure score) ([2]; 0.2 mg/kg IP, N = 8): 0 (4×) and 3 (2×) and 2 (2×)
Total (seizure score), group mean ([2]; 0.2 mg/kg IP, N = 8): 1.3
% Seizure, group ([2]; 2 mg/kg IP, N = 11): 54.5%
% Seizure ([2]; 2 mg/kg IP, N = 11): 1 (6×) and 0 (5×)
F. Clonus ([2]; 2 mg/kg IP, N = 11): 1 (5×) and 0 (6×)
Lat H. Movement ([2]; 2 mg/kg IP, N = 11): 0 (8×) and 1 (3×)
Straub T. ([2]; 2 mg/kg IP, N = 11): 0 (10×) and 1
Stun ([2]; 2 mg/kg IP, N = 11): 0 (8×) and 1 (3×)
Total (seizure score) ([2]; 2 mg/kg IP, N = 11): 1 (2×) and 0 (5×) and 2 (3×) and 4
Total (seizure score), group mean ([2]; 2 mg/kg IP, N = 11): 1.0
seizure incidence in the 6 HZ seizure test ([2]; 4 mg/kg IP): Decreased seizure incidence
% Seizure, group ([2]; 4 mg/kg IP, N = 9): 33.3%
% Seizure ([2]; 4 mg/kg IP, N = 9): 0 (6×) and 1 (3×)
F. Clonus ([2]; 4 mg/kg IP, N = 9): 0
Lat H. Movement ([2]; 4 mg/kg IP, N = 9): 0
Straub T. ([2]; 4 mg/kg IP, N = 9): 0 (8×) and 1
Stun ([2]; 4 mg/kg IP, N = 9): 0 (6×) and 1 (3×)
Total (seizure score) ([2]; 4 mg/kg IP, N = 9): 0 (6×) and 1 (2×) and 2
Total (seizure score), group mean ([2]; 4 mg/kg IP, N = 9): 0.4
seizure scores (mean±SEM) vs vehicle, post-hoc analysis ([2]; 0.02, 2, and 4 mg/kg doses IP, p<0.05): reduction in seizure scores
ED50 ([2]; 0.002 to 4 mg/kg doses, 95% confidence limits 1.36-11.82 mg/kg, read-out: ED50, decrease in percentage incidence of seizures): 4.01 mg/kg
ED50 ([2]; 95% CI (0.01-1.05), read-out: ED50, decrease in the seizure score): 0.1 mg/kg
Neurological Score (male CD-1 mice; 0.002 mg/kg IP, N = 8): 0
Neurological Score, group mean (male CD-1 mice; 0.002 mg/kg IP, N = 8): 0.0
Neurological Score (male CD-1 mice; 0.02 mg/kg IP, N = 8): 0
Neurological Score, group mean (male CD-1 mice; 0.02 mg/kg IP, N = 8): 0.0
Neurological Score (male CD-1 mice; 0.2 mg/kg IP, N = 8): 0
Neurological Score, group mean (male CD-1 mice; 0.2 mg/kg IP, N = 8): 0.0
effect on behaviour as measured by neurological scoring (male CD-1 mice; 0.002-4 mg/kg IP): no measurable effect on behaviour
Neurological Score (male CD-1 mice; 2 mg/kg IP, N = 11): 0
Neurological Score, group mean (male CD-1 mice; 2 mg/kg IP, N = 11): 0.0
Neurological Score (male CD-1 mice; 4 mg/kg IP, N = 9): 0
Neurological Score, group mean (male CD-1 mice; 4 mg/kg IP, N = 9): 0.0

CC(C)(C)C(O)/C=C/c1ccc2c(c1)OCO2 (stereo not drawn) [stiripentol]
myoclonic seizures ([1]; stiripentol added to Depakote and Onfi (and THC 5 mg HS)): resolution of myoclonic seizures

NC(=O)N1c2ccccc2C=Cc2ccccc21 [Tegretol]
side effects ([3]; Tegretol (dose unknown)): concerning side effects

CCCC(CCC)C(=O)O [Depakote]
side effects [4]: debilitating side effects

NC(=O)N1c2ccccc2CC(=O)c2ccccc21 [Trileptal]
side effects ([3]; Trileptal): concerning side effects

CCCC(CCC)C(=O)[O-].[Na+] [Sodium Valproate, Sodium valproate]
% Seizure, group ([2]; 600 mg/kg IP, N = 4): 0.0%
% Seizure ([2]; 600 mg/kg IP, N = 4): 0
F. Clonus ([2]; 600 mg/kg IP, N = 4): 0
Lat H. Movement ([2]; 600 mg/kg IP, N = 4): 0
Straub T. ([2]; 600 mg/kg IP, N = 4): 0
Stun ([2]; 600 mg/kg IP, N = 4): 0
Total (seizure score) ([2]; 600 mg/kg IP, N = 4): 0
Total (seizure score), group mean ([2]; 600 mg/kg IP, N = 4): 0.0
seizure scores (mean±SEM) vs vehicle, post-hoc analysis ([2]; p<0.01): reduction in seizure scores
motor impairment (neurological assessment) (male CD-1 mice; 600 mg/kg IP): noticeable motor impairment on all animals
Neurological Score (male CD-1 mice; 600 mg/kg IP, N = 4): 2
Neurological Score, group mean (male CD-1 mice; 600 mg/kg IP, N = 4): 2.0
